Measurements reported in US20260373160A1, “COMPOSITION FOR IMPROVEMENT, PREVENTION OR TREATMENT OF STRESS AND DEPRESSION RELATED DISEASES COMPRISING TALAMPANEL” (POSTECH RESEARCH AND BUSINESS DEVELOPMENT FOUNDATION, priority 2022, published 2026).

Legend:
Format in all cases: in vivo, C57BL6/J mice
[1] = system: mouse model of chronic stress-induced depression; experiment: Tail suspension test (TST) in mouse model of chronic stress-induced depression; details: 28 days of restraint stress, i.p. daily; 6 minutes scored; FIG. 6
Procedure: (§1) Experimental animals, 8-9 week old male C57BL6/J mice, were provided by Hyochang Science in Daegu, Korea. Mice were provided with food and water ad libitum under diurnal lighting conditions (12 hours light, 12 hours dark). All animal experimental procedures were approved by the Institutional Animal Care and Use Committee (IACUC) of Pohang University of Science and Technology, and all experiments were conducted in compliance with the approved guidelines.
(§2) To induce mice of chronic restraint stress-based depression, 8-9 week old male C57BL6/J mice were housed in single cages one day before the experiment.
Thirty minutes after drug administration, the mice were induced to enter a 50 ml conical tube with a hole to allow breathing, and paper towels were placed to eliminate any empty space, ensuring the mice remained in restraint for 4 hours. […]
The activity of each mouse was recorded on video for 6 minutes. Up to four mice were tested at a time, and the immobile time of each mouse was measured for a total of 6 minutes. The movement status of the mouse was defined based on limb movement, with a state of immobility determined when all limbs remained motionless, and the immobile time was measured. […]

[2] = Body weight change in mouse model of chronic restraint stress-based depression; details: for body weight change compared to the control group: 15 days, with 4 h daily restraint stress, FIG. 3
Procedure: as §1, §2
(§3) Thirty minutes after drug administration, the mice were induced to enter a 50 ml conical tube with a hole to allow breathing, and paper towels were placed to eliminate any empty space, ensuring the mice remained in restraint for 4 hours.

[3] = system: mouse model of chronic stress-induced depression; experiment: Forced swim test (FST) in mouse model of chronic stress-induced depression; details: i.p. daily, last 4 of 6 minutes scored
Procedure: as §1
To induce mice of chronic restraint stress-based depression, 8-9 week old male C57BL6/J mice were housed in single cages one day before the experiment. […]
To perform the forced swim test in a mouse model of chronic stress-induced depression, a cylindrical tank, with a diameter of 20 cm and a height of 30 cm, was filled with water at a temperature range of 25 °C to 28 °C until the water level reached 15 cm. Then, each mouse was carefully placed in water, and the mouse's activity was recorded on video for 6 minutes. […]
Of the total 6 minutes of recording, the first 2 minutes were excluded as habituation, and the immobile time of each mouse was measured for the next 4 minutes. Mouse movement was defined as any activity other than the minimal movements required to maintain body balance and to ensure the head remained above water, and the immobile time was measured. […]

[4] = system: mouse model of chronic stress-induced depression; experiment: Sucrose preference test (SPT) in mouse model of chronic stress-induced depression; details: 28 days of restraint stress, i.p. daily; 2% sugar solution vs water, 3 hours; FIG. 7
Procedure: as §1, §2, §3
To perform a sugar preference test in a mouse model of chronic stress-induced depression, the mice were deprived of food and water for 18 hours on Day 1 of the experiment. On Days 2 and 3, the mice were provided with food, along with a 2% sugar solution and water simultaneously to allow exposure to the 2% sugar. […] To measure the intake of the mice, the weights of the solution and bottle were recorded before and after the 3-hour test.
Sucrose preference was calculated by the following expression: (Sugar solution intake/Total liquid intake)×100. […]

## CC(=O)N1N=C(c2ccc(N)cc2)c2cc3c(cc2C[C@H]1C)OCO3 [talampanel]
[1]
  immobile time in tail suspension test compared to the control group: significant reduction in immobile time
[2]; 1 mg/kg i.p. daily
  body weight change compared to the control group: increase in body weight compared to the control group from Day 8 of administration
[2]; 10 mg/kg i.p. daily
  body weight change compared to the control group: increase in body weight compared to the control group from Day 8 of administration
[2]; i.p. daily, restraint stress, conclusion from body weight measurement
  effect on weight loss due to stress and depression: preventing weight loss caused by sustained stress
[3]; 15 days of restraint stress, FIG. 4
  immobile time in forced swim test compared to the control group: significant reduction in immobile time
[3]; 28 days of restraint stress, FIG. 5
  immobile time in forced swim test compared to the control group: significant reduction in immobile time
[4]
  sucrose preference (sugar solution intake/total liquid intake) compared to the control group: increased preference for the sugar solution compared to the control group
